Experimental data reported in ChEMBL document CHEMBL1201862, “PubChem BioAssay data set” (2004).
Active and inactive are the calls of the source.

Tests used:
[1] = target: Glucose-6-phosphate 1-dehydrogenase (Homo sapiens, UniProt P11413); assay: inhibition of Homo sapiens G6PD, dose series – biochemical, fluorescence, selectivity assay for P. falciparum G6PD inhibitor project, dose response (AID 504792); format: functional
Nonstructural protein 1 = Nonstructural protein 1 (Influenza A virus, UniProt Q194T2); format: functional, Influenza A virus (A/California/07/2009(H1N1))
Vero = assay: viability of Vero cells under compound – cytotoxicity control for flavivirus capping enzyme inhibitors (AID 588742); format: functional; conditions: Chlorocebus sabaeus
Genome polyprotein = Genome polyprotein (dengue virus type 2, UniProt P29990); assay: flavivirus cap methylation enzyme inhibition – biochemical, confirmation dose response, primary screen (AID 588689); format: functional
[2] = target: T1, Mitochondrial peptide methionine sulfoxide reductase (Bos taurus, UniProt P54149); assay: Absorbance-based biochemical high throughput dose response assay for activators of Methionine sulfoxide reductase A (MsrA).; format: functional
T1 sequence (P54149 whole entry): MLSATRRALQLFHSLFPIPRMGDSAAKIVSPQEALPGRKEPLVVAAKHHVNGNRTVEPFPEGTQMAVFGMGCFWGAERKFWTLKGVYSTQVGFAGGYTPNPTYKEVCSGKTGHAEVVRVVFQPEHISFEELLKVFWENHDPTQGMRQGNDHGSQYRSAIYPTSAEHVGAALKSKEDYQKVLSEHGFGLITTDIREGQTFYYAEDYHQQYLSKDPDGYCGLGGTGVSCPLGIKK

[3] = target: T2, Rac GTPase-activating protein 1 (Homo sapiens, UniProt Q9H0H5); assay: blockers of MgcRacGAP-driven Rac1 GTP hydrolysis – biochemical, ADP Hunter fluorescence, primary and confirmatory, confirmation (AID 624330); format: functional
T2 sequence (Q9H0H5 whole entry): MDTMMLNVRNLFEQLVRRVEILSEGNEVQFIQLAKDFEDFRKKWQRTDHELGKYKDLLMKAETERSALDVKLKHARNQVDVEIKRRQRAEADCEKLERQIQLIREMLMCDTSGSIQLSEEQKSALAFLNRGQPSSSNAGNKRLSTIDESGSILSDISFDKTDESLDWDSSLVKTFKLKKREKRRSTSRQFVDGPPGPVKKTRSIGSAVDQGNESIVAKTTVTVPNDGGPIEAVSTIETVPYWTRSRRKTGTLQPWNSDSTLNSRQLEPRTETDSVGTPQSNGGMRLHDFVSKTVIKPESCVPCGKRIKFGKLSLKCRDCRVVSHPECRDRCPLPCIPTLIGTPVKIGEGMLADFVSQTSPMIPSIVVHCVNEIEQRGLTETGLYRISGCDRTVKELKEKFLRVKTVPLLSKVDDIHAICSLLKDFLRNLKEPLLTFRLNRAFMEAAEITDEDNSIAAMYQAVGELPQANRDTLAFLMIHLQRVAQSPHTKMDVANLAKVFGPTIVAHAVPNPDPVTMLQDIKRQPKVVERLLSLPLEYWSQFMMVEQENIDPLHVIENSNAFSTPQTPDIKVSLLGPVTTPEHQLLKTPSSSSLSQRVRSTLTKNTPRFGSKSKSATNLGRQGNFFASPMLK

Caspase-6 = target: T3, Caspase-6 (Homo sapiens, UniProt P55212); assay: inhibition of CASP6 peptide cleavage – biochemical, VEID-R110 fluorescence, cherry-pick, dose response (AID 720632)
T3 sequence (P55212 whole entry): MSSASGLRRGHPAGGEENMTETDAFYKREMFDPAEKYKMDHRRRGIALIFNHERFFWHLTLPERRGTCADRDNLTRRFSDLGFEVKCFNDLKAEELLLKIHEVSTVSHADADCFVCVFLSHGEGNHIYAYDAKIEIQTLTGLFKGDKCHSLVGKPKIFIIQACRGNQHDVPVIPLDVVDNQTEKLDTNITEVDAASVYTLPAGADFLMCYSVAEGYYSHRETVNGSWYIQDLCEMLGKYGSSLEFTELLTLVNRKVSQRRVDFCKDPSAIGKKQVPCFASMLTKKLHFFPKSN

[4] = target: Tyrosyl-DNA phosphodiesterase 2 (Homo sapiens, UniProt O95551); assay: potency against TDP2 phosphodiesterase activity – biochemical, epi absorbance, IC50, dose response (AID 743297)
[5] = viability loss in HeLa cells – cytotoxicity control for MgcRacGAP inhibitor project, dose response (AID 624300); format: functional
[6] = HGIII-sPLA2 enzyme inhibition potency – biochemical, QFRET, IC50, dose response (AID 743457);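 note: green fluorescence rise as the enzyme cleaves BODIPY PC-A2 in liposomes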
Interleukin-8 [7] = target: T4, Interleukin-8 (Homo sapiens, UniProt P10145); assay: Dose Response confirmation of uHTS small molecule hits for cystic fibrosis induced NFkb Inhibitors in a TNFa-induced IL8 counterscreen.; format: functional; conditions: read-out: IC50_Mean
T4 sequence (P10145 whole entry): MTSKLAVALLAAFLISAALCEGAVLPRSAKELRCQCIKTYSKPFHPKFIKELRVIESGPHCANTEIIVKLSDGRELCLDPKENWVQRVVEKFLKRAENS

Interleukin-8 [8] = target: T4, Interleukin-8; assay: Dose Response confirmation of uHTS small molecule hits for cystic fibrosis induced NFkb Inhibitors in a PAF-induced IL8 counterscreen.; format: functional; conditions: read-out: IC50_Mean
[9] = target: SWI/SNF-related matrix-associated actin-dependent regulator of chromatin subfamily A member 2 (Homo sapiens, UniProt P51531); assay: Luminescence-based cell-based high throughput dose response assay to identify activators of the function of SWI/SNF related, matrix associated, actin dependent regulator of chromatin, subfamily a, member 2 (SMARCA2, BRM).; format: functional
[10] = Counterscreen for activators of the function of SWI/SNF related, matrix associated, actin dependent regulator of chromatin, subfamily a, member 2 (SMARCA2, BRM): Luminescence-based cell-based high throughput dose response assay to identify non-selective compounds using the VP16 reporter assay.; format: functional
[11] = Counterscreen for […] of the human trace amine associated receptor 1 (TAAR1): Fluorescence-based cell-based high throughput dose response assay to identify nonselective Ga16 agonists.; format: functional
[12] = target: T5, Trace amine-associated receptor 1 (Homo sapiens, UniProt Q96RJ0); assay: Fluorescence-based cell-based high throughput dose response assay to identify antagonists of the human trace amine associated receptor 1 (TAAR1).; format: functional
T5 sequence (Q96RJ0 whole entry): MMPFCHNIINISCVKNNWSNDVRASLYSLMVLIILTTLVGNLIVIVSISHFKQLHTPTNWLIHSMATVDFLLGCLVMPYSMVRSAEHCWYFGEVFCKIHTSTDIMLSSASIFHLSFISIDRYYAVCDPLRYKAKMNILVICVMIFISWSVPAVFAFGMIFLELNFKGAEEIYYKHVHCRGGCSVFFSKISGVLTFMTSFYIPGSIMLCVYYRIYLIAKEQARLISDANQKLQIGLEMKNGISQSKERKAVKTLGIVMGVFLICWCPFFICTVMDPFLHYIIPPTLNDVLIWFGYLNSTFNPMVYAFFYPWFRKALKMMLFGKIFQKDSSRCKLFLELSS

[13] = Counterscreen for antagonists of the human trace amine associated receptor 1 (hTAAR1): Fluorescence-based cell-based high throughput dose response assay to identify nonselective Ga16 antagonists.; format: functional
[14] = target: T5, Trace amine-associated receptor 1; assay: Counterscreen for antagonists of the human trace amine associated receptor 1 (hTAAR1): Fluorescence-based cell-based high throughput dose response assay to identify TAAR1 Agonists.; format: functional
[15] = target: T6, Methionyl-tRNA synthetase, putative (Trypanosoma brucei brucei, UniProt Q38C91); format: functional, Trypanosoma brucei brucei strain 927/4 GUTat10.1
T6 sequence (Q38C91 whole entry): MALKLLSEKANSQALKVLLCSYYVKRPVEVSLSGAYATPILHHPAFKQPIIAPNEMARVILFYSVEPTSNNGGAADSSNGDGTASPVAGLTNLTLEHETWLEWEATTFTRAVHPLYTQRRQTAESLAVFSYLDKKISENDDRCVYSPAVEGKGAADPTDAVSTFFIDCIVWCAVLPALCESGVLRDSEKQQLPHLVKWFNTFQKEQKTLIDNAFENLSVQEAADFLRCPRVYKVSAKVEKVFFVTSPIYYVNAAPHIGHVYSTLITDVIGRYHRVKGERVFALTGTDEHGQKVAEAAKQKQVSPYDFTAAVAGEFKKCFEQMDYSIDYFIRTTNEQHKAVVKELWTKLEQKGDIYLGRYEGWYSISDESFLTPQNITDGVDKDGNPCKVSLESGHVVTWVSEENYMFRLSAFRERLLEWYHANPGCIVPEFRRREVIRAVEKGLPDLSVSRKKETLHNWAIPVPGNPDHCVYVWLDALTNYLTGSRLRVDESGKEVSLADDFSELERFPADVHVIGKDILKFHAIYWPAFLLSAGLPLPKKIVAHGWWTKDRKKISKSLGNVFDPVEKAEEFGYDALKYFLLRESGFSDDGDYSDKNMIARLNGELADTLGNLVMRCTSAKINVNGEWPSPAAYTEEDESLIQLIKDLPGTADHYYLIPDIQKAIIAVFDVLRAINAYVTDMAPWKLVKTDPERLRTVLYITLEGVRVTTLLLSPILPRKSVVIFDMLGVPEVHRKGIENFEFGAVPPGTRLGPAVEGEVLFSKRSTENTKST

[16] = target: T6, Methionyl-tRNA synthetase, putative; format: functional, Trypanosoma brucei brucei strain 927/4 GUTat10.1; remark: listed apart in the source
[17] = blockers of HIV-1 envelope-mediated cell-cell fusion – cherry-pick, dose response (AID 652057); format: functional, cell-based
[18] = viability loss in CEM21 cells – cell-based, CellTiter-Glo luminescence, cherry-picked, cytotoxicity control for viral fusion inhibitor project, dose response (AID 652042); format: functional;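 note: potency for signal decrease meaning cytotoxicity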
[19] = blockers of HIV-1 ZM109 envelope-driven cell-cell fusion – HeLa effector, CEM target cells, luciferase, cherry-pick, dose response (AID 652058); format: functional, cell-based;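 note: luciferase signal from HIV-1 Env mediated cell-cell fusion of effector and target cells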
[20] = off-target signal loss in HeLa-CEM21 co-culture – HeLa F-luc CTL cells, cherry-picked, counter-screen for HIV-1 Env fusion inhibitor project, dose response (AID 652040); format: functional, cell-based;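 note: potency for signal decrease marking cytotoxic or nonspecific inhibition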
[21] = HIV-1 AD8 envelope cell-cell fusion blockers – cherry-pick, dose response (AID 652062); format: functional, cell-based;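 note: luciferase signal from cell-cell fusion driven by HIV-1 clade B AD8 Env; potency is for inhibitors of fusion seen as a drop in luminescence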

Nonstructural protein 1, sequence (Q194T2 whole entry): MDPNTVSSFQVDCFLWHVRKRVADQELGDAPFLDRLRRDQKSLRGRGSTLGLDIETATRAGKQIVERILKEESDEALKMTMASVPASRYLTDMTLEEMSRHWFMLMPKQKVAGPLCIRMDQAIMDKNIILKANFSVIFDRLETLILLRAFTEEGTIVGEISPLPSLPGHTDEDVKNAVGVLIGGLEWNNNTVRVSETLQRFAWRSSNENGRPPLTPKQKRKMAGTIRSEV
Genome polyprotein, sequence (P29990 2492-3391 limits assumed): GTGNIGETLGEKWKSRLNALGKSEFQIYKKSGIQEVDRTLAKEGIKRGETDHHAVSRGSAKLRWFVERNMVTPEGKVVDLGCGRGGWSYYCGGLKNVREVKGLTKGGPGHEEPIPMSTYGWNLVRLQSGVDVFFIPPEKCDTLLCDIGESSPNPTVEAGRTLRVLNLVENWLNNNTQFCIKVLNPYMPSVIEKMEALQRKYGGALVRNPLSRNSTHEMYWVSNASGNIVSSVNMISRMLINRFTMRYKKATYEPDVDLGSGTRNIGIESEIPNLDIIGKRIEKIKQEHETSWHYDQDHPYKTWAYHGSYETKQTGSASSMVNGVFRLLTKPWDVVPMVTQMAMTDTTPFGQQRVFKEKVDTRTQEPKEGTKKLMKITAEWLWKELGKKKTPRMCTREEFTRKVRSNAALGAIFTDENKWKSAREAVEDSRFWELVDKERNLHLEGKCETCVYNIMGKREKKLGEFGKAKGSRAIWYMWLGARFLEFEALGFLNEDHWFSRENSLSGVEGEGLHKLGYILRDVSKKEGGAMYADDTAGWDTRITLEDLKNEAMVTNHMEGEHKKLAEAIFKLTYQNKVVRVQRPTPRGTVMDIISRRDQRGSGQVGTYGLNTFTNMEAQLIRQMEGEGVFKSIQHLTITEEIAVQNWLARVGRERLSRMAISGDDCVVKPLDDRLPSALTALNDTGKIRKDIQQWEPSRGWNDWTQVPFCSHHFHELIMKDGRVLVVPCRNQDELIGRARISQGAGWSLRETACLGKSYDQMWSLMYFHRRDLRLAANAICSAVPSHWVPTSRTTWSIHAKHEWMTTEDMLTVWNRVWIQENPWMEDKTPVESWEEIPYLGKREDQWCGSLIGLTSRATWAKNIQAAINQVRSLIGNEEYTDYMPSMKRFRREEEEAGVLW
Glucose-6-phosphate 1-dehydrogenase, sequence (P11413 whole entry): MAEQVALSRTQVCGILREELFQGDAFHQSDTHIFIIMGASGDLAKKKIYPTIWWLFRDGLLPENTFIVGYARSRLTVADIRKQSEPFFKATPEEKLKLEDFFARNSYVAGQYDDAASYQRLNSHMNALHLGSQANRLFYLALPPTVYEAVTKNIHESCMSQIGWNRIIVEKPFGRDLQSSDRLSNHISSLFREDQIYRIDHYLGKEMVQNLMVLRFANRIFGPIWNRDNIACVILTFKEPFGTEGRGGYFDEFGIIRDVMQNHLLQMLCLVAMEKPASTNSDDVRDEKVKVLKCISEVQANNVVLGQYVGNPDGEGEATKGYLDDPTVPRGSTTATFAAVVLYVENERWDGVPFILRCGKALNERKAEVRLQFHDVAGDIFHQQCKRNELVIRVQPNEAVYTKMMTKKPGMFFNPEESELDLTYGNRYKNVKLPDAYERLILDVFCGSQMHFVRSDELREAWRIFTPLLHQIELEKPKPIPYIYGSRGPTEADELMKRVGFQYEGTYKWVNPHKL
Tyrosyl-DNA phosphodiesterase 2, sequence (O95551 whole entry): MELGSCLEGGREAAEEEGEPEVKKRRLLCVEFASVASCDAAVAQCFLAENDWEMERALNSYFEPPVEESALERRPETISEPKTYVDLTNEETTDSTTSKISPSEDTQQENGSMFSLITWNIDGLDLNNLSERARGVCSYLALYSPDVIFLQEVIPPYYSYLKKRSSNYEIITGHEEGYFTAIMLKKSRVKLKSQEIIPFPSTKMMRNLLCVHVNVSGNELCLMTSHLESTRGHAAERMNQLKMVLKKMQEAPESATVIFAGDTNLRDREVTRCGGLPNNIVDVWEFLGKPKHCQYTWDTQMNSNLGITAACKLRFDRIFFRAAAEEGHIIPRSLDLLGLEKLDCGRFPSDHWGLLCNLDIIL
SWI/SNF-related matrix-associated actin-dependent regulator of chromatin subfamily A member 2, sequence (P51531 whole entry): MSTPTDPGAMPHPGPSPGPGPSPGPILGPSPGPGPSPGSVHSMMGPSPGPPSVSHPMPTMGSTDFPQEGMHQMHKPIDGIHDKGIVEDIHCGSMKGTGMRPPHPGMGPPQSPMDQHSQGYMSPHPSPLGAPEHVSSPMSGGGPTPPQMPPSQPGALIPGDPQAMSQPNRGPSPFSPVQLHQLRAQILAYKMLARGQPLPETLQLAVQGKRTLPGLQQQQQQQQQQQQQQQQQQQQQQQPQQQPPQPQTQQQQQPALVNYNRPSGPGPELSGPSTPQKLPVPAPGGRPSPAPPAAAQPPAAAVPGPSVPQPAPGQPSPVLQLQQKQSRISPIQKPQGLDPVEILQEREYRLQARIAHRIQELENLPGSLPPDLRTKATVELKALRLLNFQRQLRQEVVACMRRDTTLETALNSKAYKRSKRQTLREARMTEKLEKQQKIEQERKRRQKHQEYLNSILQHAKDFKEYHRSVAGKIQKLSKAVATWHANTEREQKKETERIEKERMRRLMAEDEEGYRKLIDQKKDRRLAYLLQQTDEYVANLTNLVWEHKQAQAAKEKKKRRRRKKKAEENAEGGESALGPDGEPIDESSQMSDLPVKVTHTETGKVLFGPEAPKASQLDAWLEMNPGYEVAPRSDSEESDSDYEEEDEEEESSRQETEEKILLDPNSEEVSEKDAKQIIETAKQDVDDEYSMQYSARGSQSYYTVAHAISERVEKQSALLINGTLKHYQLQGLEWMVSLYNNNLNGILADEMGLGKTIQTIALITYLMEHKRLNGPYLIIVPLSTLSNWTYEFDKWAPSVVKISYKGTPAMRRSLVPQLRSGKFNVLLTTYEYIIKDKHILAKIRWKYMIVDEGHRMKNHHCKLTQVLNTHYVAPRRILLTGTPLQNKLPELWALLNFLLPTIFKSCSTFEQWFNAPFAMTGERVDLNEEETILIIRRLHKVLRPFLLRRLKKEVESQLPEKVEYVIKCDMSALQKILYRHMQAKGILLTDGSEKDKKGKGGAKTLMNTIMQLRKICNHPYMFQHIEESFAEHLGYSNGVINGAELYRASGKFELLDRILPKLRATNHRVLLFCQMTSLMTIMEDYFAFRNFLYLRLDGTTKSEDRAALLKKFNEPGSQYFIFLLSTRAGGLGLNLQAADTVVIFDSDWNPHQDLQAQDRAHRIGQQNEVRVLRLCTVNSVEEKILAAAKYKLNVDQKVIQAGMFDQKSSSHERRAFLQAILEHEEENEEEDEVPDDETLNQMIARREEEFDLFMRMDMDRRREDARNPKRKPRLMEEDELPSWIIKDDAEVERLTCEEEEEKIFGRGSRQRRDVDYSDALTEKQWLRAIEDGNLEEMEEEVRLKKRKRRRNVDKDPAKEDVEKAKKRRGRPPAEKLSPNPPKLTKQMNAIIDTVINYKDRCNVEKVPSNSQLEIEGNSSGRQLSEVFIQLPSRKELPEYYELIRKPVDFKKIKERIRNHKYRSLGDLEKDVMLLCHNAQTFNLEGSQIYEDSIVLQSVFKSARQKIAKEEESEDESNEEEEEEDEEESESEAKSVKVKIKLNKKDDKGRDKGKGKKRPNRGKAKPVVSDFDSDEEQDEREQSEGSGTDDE

In the case of `C[n+]1c(-c2ccccc2)cc2c(=Cc3ccc([N+](=O)[O-])cc3)c3ccccc3n21`, the IC50 [1] is reported as > 80 µM (inactive), the IC50 (Nonstructural protein 1) is reported as 9.36 µM (active) and the CC50 (Vero) is reported as 34.8 µM (active). The IC50 (Genome polyprotein) was 14.2 µM (active), the EC50 [2] was > 104 µM (inactive) and the IC50 [3] was 31.5 µM (active). For the same compound, the AC50 (Caspase-6) was 0.309 µM (active) and the IC50 [4] was > 128 µM (inactive).

In the case of `COc1ccc2c(c1)-c1c(ssc1=S)C(C)(C)N2`, the IC50 (Nonstructural protein 1) is reported as 22.7 µM (active), the CC50 [5] is reported as 100 µM (active) and the IC50 [3] is reported as 29.4 µM (active).

With `O=C(NNC(=S)Nc1ccccc1Cl)c1ccccc1Cl` the IC50 [6] was > 122 µM (inactive).

With `C=C1C(=O)[C@]23C[C@H]1CCC2[C@@]1(C)C(C[C@@H]3O)[C@](C)(C(=O)O)CC[C@@H]1O` (some centres not stated) the IC50 (Interleukin-8 [7]) was 39.7 µM (inactive), the IC50 (Interleukin-8 [8]) was 0.817 µM (active) and the EC50 [9] was > 10.1 µM (inactive). The EC50 [10] was > 91.3 µM (inactive).

With `Cc1cccc(C(C#N)c2nc3ccccc3nc2C(F)(F)F)c1` (configuration not stated) the EC50 [11] was > 29.9 µM (inactive), the IC50 [12] was 1.58 µM (active) and the IC50 [13] was > 29.9 µM (inactive). For the same compound, the EC50 [14] was > 29.9 µM (inactive).

In the case of `O=S(=O)(c1ccc2nc(SCc3ccc(Cl)cc3)[nH]c2c1)N1CCOCC1`, the IC50 [15] is reported as 32.3 µM (inactive) and the IC50 [16] is reported as 30.8 µM (inactive).

In the case of `OCCCn1c(CCNc2nc(-c3ccc(F)cc3)cs2)nc2cc(C(F)(F)F)ccc21`, the AC50 [17] is reported as 8.76 µM (active), the AC50 [18] is reported as 51.5 µM (active) and the AC50 [19] is reported as 5.8 µM (active). For the same compound, the AC50 [20] was 43.1 µM (active) and the AC50 [21] was 16 µM (active).
